Experiment [1] concerns predendritic cells (DC-6). As to the kind of experiment: dendritic cell differentiation test: FITC-Dextran take-up. The class given is cell-based, human. The settings on record: for Dextran % CD / Dextran Fluorescence: 10 μg/ml; for Dextran % CD: products redissolved in pyrogen-free water, % of dendritic cells; for Dextran Fluorescence: mean fluorescence value. How it is done: The ability of products of the invention to induce maturation of predendritic cells into dendritic cells was assessed. The following parameters were measured: FITC-Dextran conjugate take-up and expression of CD83, CD86 surface markers.
Mononucleated cells of peripheral blood are isolated from buffy coats of healthy donors. Purified monocytes by adherence selection are resuspended in RPMI-1640 medium containing 10% of foetal calf serum (FCS), GM-CSF and IL-4 (10 ng/ml) at a density of 1×10^6 cells/ml. Cells are divided into Petri Dishes (10×10^6 cells per dish) and cultured for 6 days with a change to fresh medium after 3 days. Cells thus obtained are called predendritic cells (DC-6). Maturation of predendritic cells into mature dendritic cells is achieved by incubating cells with diluted solutions of the products or LPS (positive control) for 3 more days (see product section below). At day 9 (DC-9), cells are harvested and analyzed for different indicators of dendritic cell maturation: assessment of CD83, CD86 surface marker expression as well as of their ability to take up FITC-Dextran conjugate. All these parameters are analyzed by an EPICS-XL-MCL model FACS (Coulter Immunology, Hialeah, […]).
Expression of surface markers is given as % of mean fluorescence of LPS-activated cells (positive control); FITC-Dextran conjugate take-up rate is calculated based on take-up of cells maintained in basic medium and is expressed in %.
Solutions are incubated at 37° C. for 20 minutes, subjected to vigorous stirring during 3 minutes and then diluted to 100 μg/ml in RPMI-1640 culture medium and used in diluted state at concentrations ranging from 10 μg/ml to 0.03 μg/ml. Reference Product: E. coli lipopolysaccharide (LPS, DIFCO, Detroit, Mich., U.S.A.), as a 5 mg/ml stock solution in PBS. An intermediate 100 μg/ml solution is prepared in RPMI 1640 culture medium. Concentrations of dilute solutions being tested range from 1 μg/ml to 0.03 μg/ml.
In another series of experiments, all acyl dipeptide-like compounds were freeze-dried and directly redissolved into pyrogen-free water. Different products as well as LPS control are tested at a concentration of 10 μg/ml. Results are given as % of dendritic cells and mean fluorescence value for dextran phagocytosis or CD86 surface marker expression.
Immature dendritic cells (DC-6) resulting from monocyte differentiation, through the joint action of GM-CSF and IL-4, are able to incorporate FITC-Dextran conjugate. During the maturation process, cells lose their ability to incorporate the FITC-Dextran conjugate. Assays are conducted upon reaching the DC-9 differentiation stage.

Experiment [2] deals with bone marrow stem cells. The experiment can be described thus: bone marrow stem cell proliferation (XTT). The class given is cell-based, C57/BL6 mice. The note with it: for Max amplitude: 7 days, XTT 492 nm; for Min amplitude: blank ± 3× standard deviation; for Max concentration: concentration at maximum amplitude; for EC50 conc: concentration corresponding to 50% of maximum amplitude; for Min concentration: lowest concentration inducing a significant proliferation. The text has this: 6-week old male C57/BL6 mice are killed by CO2 inhalation. The hip, femur, tibia and hind leg bones are removed. The marrow is extracted from the bone lumen by injecting Dulbecco's Modified Eagle Medium (DH medium) from the end portions which had been excised. The stem cells are washed and suspended again in DH medium supplemented with 20% foetal calf serum (FCS) The cell concentration is adjusted to 500000 cells/ml.
Products previously dissolved in DH medium supplemented with 20% FCS, amino acids and antibiotics are serially diluted directly into a microtiter plate. The products are tested in triplicate and each microtiter plate includes a negative control containing plain medium. The final volume in each well is 100 μl.
100 μl of the cell suspension are added to diluted solutions of products and the cells are incubated for 7 days in an incubator at 37° C., under 8% CO2 and a moisture saturated atmosphere. Cell proliferation is determined by measuring the […] of a chromogenic substrate XTT (2,3-bis[2-methoxy-4-nitro-5-sulphophenyl]-2H-tetrazolium-5-carboxanilide) in mitochondria of viable cells.
At the end of the incubation period, 50 μl of the XTT substrate solution (1 mg/ml XTT+0.008 mg/ml phenazine methosulfate) are added to each well. After an 8 hour incubation period at 37° C. under 8% CO2 in a moisture saturated incubator, the microtiter plates are read with a spectrophotometer at 492 nm against a reference sample at 690 nm.
Results are expressed as mean value±standard deviation and plotted as a dose versus response curve. Values for a negative control composed of DH medium (mean±standard deviation) are also graphically shown.
From this dose versus response curve, 3 curve variables are computed:
Max: maximum curve amplitude and corresponding concentration
EC50: concentration corresponding to 50% of maximum amplitude
Min: lowest concentration inducing a significant proliferation corresponding to the blank±3× standard deviation value
Concentration values corresponding to EC50 and Min are determined from line segments joining different points on the curve.
If the curve has no plateau phase but an ascending configuration for the highest concentration being tested, a “>” sign is shown before Max and EC50 values.

Values after ≈ are worked out from the molar mass of the structure shown. Bounds are passed on as bounds.

As to `CCCCCCCCCCCC(=O)O[C@H](CCCCCCCCCCC)CC(=O)N[C@H](CC(=O)N[C@@H](CC(=O)O)C(=O)O)C(=O)NCCC[C@H](COC(=O)CCCCCN)NC(=O)C[C@H](O)CCCCCCCCCCC` [OM-197-Asp-AC, N—[(R)-3-dodecanoyloxytetradecanoyl]-D-aspartic acid, α-N-{(4R)-5-(6-aminohexanoyloxy)-4-[(R)-3-hydroxytetradecanoyl-amino]-pentyl}amide β-N-[(1S)-1,2-dicarboxyethyl]Amide], in experiment [1], the “Dextran % CD” value turned out to be 22.0% and the “Dextran Fluorescence” value was determined as 22.1. In addition, in experiment [2], the Max amplitude is 1.33 O.D, the Min amplitude came out at 0.80 O.D, the Max concentration amounted to 50 µg/mL and the EC50 conc is 2.8 µg/mL (≈ 2.55 µM). The same compound registered a Min concentration in experiment [2] of 1.27 µg/mL.

`CCCCCCCCCCCC(=O)O[C@H](CCCCCCCCCCC)CC(=O)N[C@H](CC(=O)O)C(=O)NCCC[C@H](COP(=O)(O)O)NC(=O)C[C@H](O)CCCCCCCCCCC` [OM-197-MC-MP, N—[(R)-3-dodecanoyloxytetradecanoyl]-D-aspartic acid, α-N-{(4R)-5-dihydroxyphosphoryloxy-4-[(R)-3-hydroxytetradecanoyl-amino]pentyl}amide]: in experiment [2], the Max amplitude is listed as > 1.60 O.D, the Min amplitude came to 0.80 O.D, the Max concentration was > 160 µg/mL and the EC50 conc was > 6.5 µg/mL. In experiment [2], this compound registered a Min concentration of 0.77 µg/mL.

With `CCCCCCCCCCCC(=O)O[C@H](CCCCCCCCCCC)CC(=O)N[C@H](CC(=O)O)C(=O)NCCC[C@H](COC(=O)CCCCC(O)CO)NC(=O)C[C@H](O)CCCCCCCCCCC` (stereo partly drawn) [OM-197-MC-FV5, N—[(R)-3-dodecanoyloxytetradecanoylamino]-D-aspartic acid, α-N-{(4R)-5-hydroxy-4-[(R)-3-hydroxytetra-decanoylamino]-pentyl}amide 5-O-(6,7-dihydroxyheptanoate)], in experiment [1], the “Dextran % CD” value is on record as 86.5% and the “Dextran Fluorescence” value came out at 6.4. Moreover, in experiment [2], the Max amplitude is 1.75 O.D, the Min amplitude is 0.80 O.D, the Max concentration is 50 µg/mL and the EC50 conc is 32.0 µg/mL (≈ 31.6 µM). The compound also showed a Min concentration in experiment [2] of 8.20 µg/mL.

With `CCCCCCCCCCCC(=O)O[C@H](CCCCCCCCCCC)CC(=O)N[C@H](CC(=O)O)C(=O)NCCC[C@H](COC(=O)CCCCCNC(=O)CCC(=O)O)NC(=O)C[C@H](O)CCCCCCCCCCC` [OM-197-MC-AC-Succ, N—[(R)-3-dodecanoyloxytetradecanoyl]-D-aspartic acid, α-N-{(4R)-5-(6-succinylamidohexanoxyloxy)-4[(R)-3-hydroxy-tetradecanoylamino]pentyl}amide], in experiment [2], the Max amplitude was > 1.65 O.D, the Min amplitude turned out to be 0.80 O.D, the Max concentration is > 100 µg/mL and the EC50 conc came to 33.7 µg/mL (≈ 31.2 µM). In experiment [2], this compound yielded a Min concentration of 2.04 µg/mL.

With `CCCCCCCCCCCC(=O)O[C@H](CCCCCCCCCCC)CC(=O)NC(CCOP(=O)(O)O)C(=O)NCCCC(COC(=O)CCCCC(O)CO)NC(=O)C[C@H](O)CCCCCCCCCCC` (stereo partly drawn) [OM-197-FV6, 3-[(R)-dodecanoyloxytetradecanoylamino]-4oxo-5-aza-9-[(R)-3-hydroxytetradecanoylamino]-decan-1,10-diol 1-dihydrogenphate 10-(6,7-dihydroxyheptanoate)], in experiment [1], the “Dextran % CD” value is listed as 84.5% and the “Dextran Fluorescence” value is given as 6.3. The “effect on maturation of dendritic cells” value in experiment [1] (0.03 to 10 μg/ml) is recorded as “apparently no effect”. Besides, the “concentration inducing differentiation of DC-6 cells into DC-9 cells” value in experiment [1] (summary of phagocytosis and marker data) is listed as “totally lack such an activity”. In experiment [2], this compound displayed a Max amplitude of 1.52 O.D, a Min amplitude of 0.80 O.D, a Max concentration of 50 µg/mL and an EC50 conc of 5.7 µg/mL (≈ 5.29 µM). Also, in experiment [2], the Min concentration came to 1.60 µg/mL.

In experiment [2], `CCCCCCCCCCCC(=O)O[C@H](CCCCCCCCCCC)CC(=O)NC(CCOP(=O)(O)O)C(=O)NCCCC(COC(=O)CCCCCO)NC(=O)C[C@H](O)CCCCCCCCCCC` (stereo partly drawn) [OM-197-FV8, 3-[(R)-3-dodecanoyloxytetradecanoylamino]-4-oxo-5-aza-9-[(R)-3-hydroxytetradecanoylamino]-decan-1,10-diol 1-dihydrogenphosphate 10-(6-hydroxyhexanoate)] showed a Max amplitude of 1.07 O.D, a Min amplitude of 0.80 O.D, a Max concentration of 25 µg/mL and an EC50 conc of 1.8 µg/mL (≈ 1.72 µM). Further, the Min concentration in experiment [2] was 1.24 µg/mL.

On to `CCCCCCCCCCC[C@@H](O)CC(=O)N[C@H](CCCNC(=O)[C@@H](CC(=O)O)NC(C)=O)COC(=O)CCCCCN` [OM-197-N′C2-MC-AC, N-acetyl-D-aspartic acid, α-N-{(4R)-5-(6-aminohexanoyloxy)-4-[(R)-3-hydroxytetradecanoylamino]-pentyl}amide], for which, in experiment [2], the Max amplitude was determined as 0.75 O.D, the Min amplitude is reported as 0.80/nd O.D and the Max concentration was 1.56 µg/mL.

As to `CCCCCCCCCCCC(=O)O[C@H](CCCCCCCCCCC)CC(=O)N[C@H](CC(=O)O)C(=O)NCCC[C@H](COC(=O)CCCCCO)NC(=O)C[C@H](O)CCCCCCCCCCC` [OM-197-MC-FV7, N—[(R)-3-dodecanoyloxytetradecanoylamino]-D-aspartic acid, α-N-{(4R)-5-hydroxy-4-[(R)-3-hydroxytetradecanoylamino]pentyl}amide 5-O-(6-hydroxyhexanoate)], in experiment [2], the Max amplitude is > 1.83 O.D, the Min amplitude is reported as 0.80 O.D, the Max concentration was > 100 µg/mL and the EC50 conc was > 33.1 µg/mL. For the same compound, in experiment [2], the Min concentration was 6.58 µg/mL.

Regarding `CCCCCCCCCCC[C@@H](O)CC(=O)N[C@H](CCCNC(=O)[C@@H](CC(=O)O)NC(=O)C(CCCCCC)OC(=O)CCCCCCCCC)COC(=O)CCCCCN` (stereo partly drawn) [OM-197-N′(C10-20C8)-MC-AC, N-(2-decanoyloxyoctanoyl)-D-aspartic acid, α-N-{(4R)-5-(6-aminohexanoyloxy)-4-[(R)-3-hydroxytetradecanoylamino]-pentyl}amide], in experiment [2], the Max amplitude amounted to 0.75 O.D, the Min amplitude is recorded as 0.80/nd O.D and the Max concentration was determined as 6.25 µg/mL.

For `CCCCCCCCCCCC(=O)O[C@H](CCCCCCCCCCC)CC(=O)N[C@@H](CCOP(=O)(O)O)C(=O)NCCC[C@H](COC(=O)CCCCCO)NC(=O)C[C@H](O)CCCCCCCCCCC` [OM-197-MP-AC (S, R), (3S,9R)-3-[(R)-3-dodecanoyloxytetradecanoylamino]-4-oxo-5-aza-9-[(R)-3-hydroxytetradecanoylamino]-1,10-diol 1-dihydrogenphosphate 10-(6-hydroxyhexanoate)], in experiment [2], the Max amplitude was 1.22 O.D, the Min amplitude was 0.80 O.D, the Max concentration stood at 6.25 µg/mL and the EC50 conc is 2.62 µg/mL (≈ 2.5 µM). The compound also gave a Min concentration in experiment [2] of 1.17 µg/mL.
